Source: ChEMBL document CHEMBL1157539, “Thousands of chemical starting points for antimalarial lead identification” (Nature, 2010)

Tested on: Plasmodium falciparum
Experiment: GSK_TCMDC: Inhibition of Plasmodium falciparum 3D7 in whole erythrocytes, using parasite LDH activity as an index of growth.
Assay type: functional, organism-based
Conditions: Plasmodium falciparum, 3D7

CC(C)(C)c1nn(-c2ccccc2)c2[nH]c(=O)c(CNC3CCCCC3)cc12
XC50: 1250 nM

CC(=O)Nc1cccc(/C=C/C(=O)N2CCC(N3CCCCC3)CC2)c1
XC50: 1050 nM

CCCC(=O)NC(c1ccc(C)cc1)c1ccc2cccnc2c1O (centres undefined)
XC50: 957 nM

Cc1cnc(C(=O)Nc2cccc(-c3cccc(-c4nc5cccc(C)c5[nH]4)c3)c2)cn1
XC50: 579 nM

O=C(NCCN1CCCC1)c1cccc(-c2ccc(-c3nc4cc(F)ccc4[nH]3)cc2)c1
XC50: 722 nM

O=C(/C=C/c1ccc(Cl)c(Cl)c1)NCCCCCCN1CCN(C(=O)Nc2ccc(Cl)c(Cl)c2)CC1
XC50: 931 nM

CC1=C(C(=O)Nc2ccc(Cl)cc2)C(c2ccncc2)n2nc(C(F)(F)F)nc2N1 (centres undefined)
XC50: 935 nM

CCc1cccc2c(C#N)cn(CC(=O)NCCc3ccccc3)c12
XC50: 887 nM

CC(C)CCn1c(Sc2ccc(C#N)c([N+](=O)[O-])c2)nnc1-c1ccccc1Cl
XC50: 1030 nM

O=C(Nc1ccc(Cl)cc1)Nc1ccc(-c2ccc(-c3nc4ccccc4[nH]3)cc2)cc1
XC50: 50.7 nM

Cc1cc(N[C@@H](Cc2ccccc2)C(=O)NCc2cccc(F)c2)nc(NCCc2cccs2)n1
XC50: 622 nM

COc1ccc2c(c1CCNCCCCNCCc1c(OC)ccc3c1CCCC3)CCCC2
XC50: 376 nM

OC(CNCc1ccccc1OCc1ccccc1)c1cc(Br)cs1 (centres undefined)
XC50: 722 nM

COc1cc2nc(Nc3ccc(Oc4ccccc4)cc3)nc(Nc3ccc(Oc4ccccc4)cc3)c2cc1OC
XC50: 934 nM

CCCc1ccc(Nc2nc(C)cc(N(CC)CCCN3CCCCC3)n2)cc1
XC50: 543 nM

Brc1cc(Br)c2c(c1)C(NCCCNC1CCNc3c(Br)cc(Br)cc31)CCN2 (centres undefined)
XC50: 823 nM

CCOC(=O)C1=C(C)N=c2sc(=Cc3cc(Cl)ccc3O)c(=O)n2C1c1ccc(OC)cc1 (centres undefined)
XC50: 746 nM

CCCCCCCC1CC(CC(=O)Nc2ccnc3ccc(OC)cc23)CN1C(=O)OC(C)(C)C (centres undefined)
XC50: 714 nM

CC(C)(C)N1CCC(N(Cc2ccc(-c3ccc(C(F)(F)F)cc3)cc2)C(=O)Cn2c(CCc3cccc(F)c3F)cc(=O)c3cccnc32)CC1
XC50: 705 nM

Cc1cc(-c2ccc3c(c2)CCN(CCC2CCC(NC(=O)/C=C/c4cccc(Cl)c4)CC2)CC3)on1 (centres undefined)
XC50: 589 nM

CCCc1cc(C(C)=O)ccc1OCCCON1C(=N)N=C(N)NC1(C)C
XC50: 4.57 nM

Cn1ncc2c3c(CCN4CCC(NCc5cc6c(cn5)OCCO6)CC4)c(Cl)cnc3ccc21
XC50: 775 nM

COc1cc(-c2nc(C(C)(C)CN)[nH]c2-c2ccncc2)ccc1Br
XC50: 769 nM

O=C(Nc1ccc2c(c1)CNCC2)c1ccc(-c2ccc(Cl)cc2)cc1
XC50: 662 nM

COc1ccc(NC(=O)[C@H](Cc2ccccc2)Nc2cc(C)nc(NCCc3ccc(F)cc3)n2)cc1
XC50: 1120 nM

COc1ccc(NC(=O)[C@H](Cc2ccccc2)Nc2cc(C)nc(NCC3CCCCC3)n2)cc1
XC50: 678 nM

COc1ccc2nc(N(CCCn3ccnc3)C(=O)C=Cc3cccs3)sc2c1
XC50: 1050 nM

CCCNCc1ccc(-c2ccc(CN(Cc3cnc(C)cn3)C(=O)CC#N)cc2)nc1
XC50: 1220 nM

Cc1cc(=O)[nH]c(-n2nc(C)cc2NC(=O)CC(c2ccccc2)c2ccccc2)n1
XC50: 1100 nM

NOCCCCOc1cc(Cl)c(Cl)cc1Cl
XC50: 175 nM

NCC1CCCN1Cc1ccc(-c2ccc(-c3nc4cc(C(F)(F)F)ccc4[nH]3)cc2)cc1 (centres undefined)
XC50: 959 nM

CC(C)Cn1cc(C2CCN(CCN3CCC(CNC(=O)c4ccc(NC(=O)c5cc(Cl)cc(Cl)c5)cc4)CC3)CC2)c2ccccc21
XC50: 693 nM

Cc1ccc(C)c(NC(=O)CC2C(=O)N(c3ccccc3)C(=S)N2Cc2ccco2)c1 (centres undefined)
XC50: 570 nM

CCCC(=O)Nc1ccc(Cl)c(NC(=O)COc2cc(C)ccc2C(C)C)c1
XC50: 933 nM

CC1(C)CC2CC(C)(CN2C(=O)c2cc(C(C)(C)C)nn2Cc2ccccc2)C1 (centres undefined)
XC50: 1090 nM

COc1ccc(NC(=O)/C=C/c2ccc(-c3ccccc3)cc2)cc1N1CCN(C)CC1
XC50: 906 nM

CCc1ccc(OCc2ccccc2C(=O)Nc2ccc3nc(C)cc(N)c3c2)cc1
XC50: 203 nM

COc1ccc(NC(=O)Nc2cccc(-c3cccc(-c4nc5cc(F)ccc5[nH]4)c3)c2)cc1
XC50: 171 nM

CC1(C(=O)Nc2ccc([N+](=O)[O-])cc2O)CC2c3ccccc3C1c1ccccc12 (centres undefined)
XC50: 715 nM
